The values that follow come from PubChem BioAssay AID1259426 (Fisher Drug Discovery Resource Center, 2018).

Each structure is given as a SMILES string. Activity calls are given as the source filed them.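 How the source made its calls: active means EC50 under a set limit in control cells lacking the mosquito receptor, marking a fluorescence artifact; inactive means the rest.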

The target of this test is HEK293 Galpha15/GCaMP6s without NPYLR7, calcium fluorescence. The test can be described thus: calcium response in NPYLR7-null HEK293 cells, dose response, counter-screen for mosquito NPYLR7 agonist project, cell-based, HEK293 lacking NPYLR7 (AID 1259426).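 Further: potency for a rise in fluorescence over baseline.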
In the case of `CCCCN(CC(=O)Nc1c(-c2ccccc2)c(C)nn1-c1ccccc1C)S(=O)(=O)c1ccc(F)cc1`, the EC50 (in general, the concentration giving half of the maximal effect) was > 20 µM (inactive). For the compound `CC(C)N=c1c([N+](=O)[O-])nn(-c2ccc(Cl)cc2)n1O`, the EC50 was > 20 µM (inactive). On to `O=C(Nc1cccc(-c2nnco2)c1)C1CCCCC1`, for which the EC50 is > 20 µM (inactive).

Consider `COc1cc(C=C(C#N)S(=O)(=O)c2ccc(F)cc2)cc(Br)c1O`, for which the EC50 was > 20 µM (inactive). On to `O=C1c2ccccc2C(=O)C1c1ccnc2ccccc12`, for which the concentration for a half-maximal effect (EC50) is 17.3 µM. Turning to `CCn1c(O)c(C=Nc2c(C#N)c(C)c(C)n2C2CCCCC2)c(=O)n(CC)c1=S`, the 50% effective concentration (EC50) is 1.31 µM. Turning to `COc1ccc(/C=C2\Oc3c(ccc4c3CN(Cc3ccncc3)CO4)C2=O)cc1OC`, the EC50 was 9.55 µM. With `C=CCC1=CC(=Cc2c(N)n3nc(Cc4cccs4)sc3nc2=O)C=C(OC)C1=O` the figure was 2.43 µM. As to `N#CC(C#N)=C1C=C2C=C(N3CCc4ccccc4C3)CCC2CC1` (stereo unspecified), the EC50 is > 20 µM (inactive). With `Nc1ncnc2c1ncn2[C@@H]1O[C@H](CO)[C@H](O)C1O` (stereo partly specified) the figure was 7.87 µM. For `CCC(C)n1cc(/C=C2/C(=O)NC(=O)N(c3ccc4c(c3)OCO4)C2=O)c2ccccc21` (stereo unspecified), the EC50 is > 20 µM (inactive). For the compound `CCOc1ccc(/C=C2N=C(/C=C/c3ccccc3)OC/2=O)cc1`, the EC50 was > 20 µM (inactive). The result for `COc1ccc(-c2cccc(-c3ccc(NC(=O)c4oc5ccccc5c4C)cc3)n2)cc1` reads > 20 µM (inactive); that for `CCOc1ccc(C(=O)Nc2sc3c(c2-c2nc4ccccc4s2)CCN(C)C3)cc1`, > 20 µM (inactive).

With `C(/C=C/CC=Nc1ccccc1)=Nc1ccccc1`, the EC50 is 14.5 µM.

As to `O=C1CSC(=S)N1N=Cc1cc(Br)c(O)c(Br)c1`, the 50% effective concentration (EC50) is 2.31 µM.

Turning to `CCOC(=O)c1c(-c2ccccc2)csc1N=Cc1nc(-c2ccco2)oc1O`, the EC50 is > 20 µM (inactive). Regarding `O=C1/C(=C/c2cc3cc(Br)ccc3o2)Oc2c1ccc(O)c2CN1CCN(CCO)CC1`, the concentration giving a half-maximal response (EC50) is 6.64 µM. `Cc1cccc(Oc2nc3ccccn3c(=O)c2/C=C(\C#N)c2nc3ccccc3s2)c1`: the EC50 was > 20 µM (inactive). With `O=c1oc2cc(O)ccc2cc1-c1nc2ccccc2s1` the figure was 0.0533 µM; with `O=C1c2ccccc2-c2nn(CN3CCN(c4ccccc4)CC3)c3cccc1c23`, > 20 µM (inactive); with `Nc1nc(Cl)nc2c1ncn2[C@@H]1O[C@H](CO)[C@@H](O)[C@H]1O`, 1.15 µM. With `CC(=O)Oc1ccc(Cn2c(C)c(C(=O)NCc3ccc(C#N)cc3)sc2=O)cc1` the figure was > 20 µM (inactive).

On to `NCCNc1ccc2c3c(cccc13)C(=O)N(c1ccc(Cl)cc1)C2=O`, for which the concentration for a half-maximal effect (EC50) was 0.47 µM.

Turning to `CC(C)NC(=O)C(C)N1CCc2onc(-c3ccc(C(F)(F)F)cc3)c2C1` (stereo unspecified), the EC50 was 8.58 µM. Take `FC(F)(F)c1cc(-c2cccs2)nc2ncnn12`: the EC50 was 18.3 µM. With `O=C(c1nccc2ccccc12)N1CCN(CC2CCCC2)CC1` the figure was > 20 µM (inactive); with `Cc1cc2nc3c(=O)[nH]c(=O)nc-3n(CC(O)C(O)C(O)CO)c2cc1C` (stereo unspecified), less than 0.039 µM; with `CCN1CCN(c2ccc(C(=O)C=Cc3ccc(O)c(OC)c3)cc2F)CC1`, 11.2 µM. For `COc1ccc2nc(C=Cc3cc(Br)c(O)c(OC)c3)sc2c1`, the EC50 is > 20 µM (inactive).

As for `N#CC1C(=N)SC(=N)C(C#N)C1c1cccc(F)c1` (stereo unspecified), the EC50 is 7.03 µM.
